Reference: patent publication US20160137639A1, “TRIAZOLE-ISOXAZOLE COMPOUND AND MEDICAL USE THEREOF” (JAPAN TOBACCO INC., priority 2012, published 2016)
Where two headings read alike, the source gives them in different places.

Tests used:
[1] = target: T1, human RORγ (Homo sapiens, UniProt P51449); test: Luciferase reporter gene assay of inhibitory effect against RORγ transcriptional activity (GAL4-hRORγ plasmid in CHO cells); assay type: cell-based
T1 construct: human, NM_005060.3 and from Ser253 to Lys518; expressed in transfected cells; host or cells: CHO cells (transient co-transfection with pG5-Luc reporter)
T1 sequence (P51449 253-518): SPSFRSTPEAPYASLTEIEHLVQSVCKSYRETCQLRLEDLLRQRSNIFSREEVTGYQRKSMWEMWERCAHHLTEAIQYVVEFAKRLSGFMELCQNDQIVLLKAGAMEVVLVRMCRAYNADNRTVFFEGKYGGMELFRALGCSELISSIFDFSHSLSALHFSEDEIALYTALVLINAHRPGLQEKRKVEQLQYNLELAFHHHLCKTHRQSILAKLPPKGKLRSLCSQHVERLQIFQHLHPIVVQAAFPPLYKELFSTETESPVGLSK

[2] = target: T2, mouse RORγ (Mus musculus, UniProt P51450); test: Luciferase reporter gene assay of inhibitory effect against RORγ transcriptional activity (GAL4-mRORγ plasmid in CHO cells); assay type: cell-based
T2 construct: mouse, NM_011281.2 and from Ile251 to Lys516; expressed in transfected cells; host or cells: CHO cells (transient co-transfection with pG5-Luc reporter)
T2 sequence (P51450 251-516): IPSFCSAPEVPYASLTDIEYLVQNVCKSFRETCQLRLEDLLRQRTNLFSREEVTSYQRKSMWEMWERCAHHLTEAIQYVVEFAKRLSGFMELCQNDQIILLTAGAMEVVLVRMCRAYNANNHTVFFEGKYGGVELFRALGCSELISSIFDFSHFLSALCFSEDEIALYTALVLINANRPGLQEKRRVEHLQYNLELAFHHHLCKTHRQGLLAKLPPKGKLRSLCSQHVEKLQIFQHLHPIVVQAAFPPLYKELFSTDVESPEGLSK
Outline: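 Readout is intracellular luciferase after 2-day compound exposure (8 concentrations, 0.1% DMSO) in CHO cells expressing GAL4 fused to mouse RORγ LBD residues Ile251–Lys516 plus pG5-Luc reporter. EC50 fitted from %-of-control; points showing resazurin-detected cytotoxicity dropped.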

SMILES	EC50 ([1]; read-out: LUC EC50 (μM) hRORg) [µM]	EC50 ([2]; read-out: LUC EC50 (μM) mRORg) [µM]	EC50 ([1]; read-out: LUC EC50 hRORg) [µM]	EC50 ([2]; read-out: LUC EC50 mRORg) [µM]
CC(=O)N[C@@H](CC(=O)Nc1ccc(C)cc1C)c1nnc(CCCC(C)C)n1C1CC1 [Example F-291]	< 3	< 3		
Cc1ccc(NC(=O)C[C@H](CCCO)c2nnn([C@H]3C[C@@H](CC(C)(C)C(C)C)C3)c2C2CC2)c(F)c1 [Example F-709]			< 3	< 3
Cc1ccc(NC(=O)[C@H]2CN(C)CC[C@@H]2c2nnc(CCCC(C)(C)C)n2C2CC2)c(C)c1 (racemic) [Example F-394]	< 3	< 3		
CC(=O)N1C[C@H](C(=O)Nc2ccc(C)cc2C)[C@@H](c2nnc(C3CC(C(C)C)C3)n2C2CC2)C1 (stereo partly shown) [Example F-298]	< 3	< 3		
CC(C)C[C@H]1C[C@@H](c2nnc([C@@H](CCO)CC(=O)Nc3cccc4c3CCC4)n2C2CC2)C1 [Example F-543]			< 3	< 3
Cc1ccc(NC(=O)C[C@H](CCC(=O)O)c2noc(-c3cc(CC(C)(C)C)on3)c2C2CC2)c(F)c1 [Example E-65]	< 3	< 3		
Cc1ccc(NC(=O)CCc2noc([C@H]3C[C@@H](CC(C)C)C3)c2CCC(=O)O)c(C)c1 [Example F-664]			> 3	> 3
COc1cc(C)ccc1CNC(=O)CCc1nnc(CCC2CCCCC2)n1C1CC1 [Example F-188]	< 3	< 3		
CC(=O)N1C[C@@H](C(=O)Nc2ccc(C)cc2C)[C@H](c2nnc(CCCC(C)(C)C)n2CC(F)(F)F)C1 [Example F-393]	> 3	> 3		
Cc1ccc(NC(=O)C[C@H](CCC(=O)O)c2noc(-c3cc(C(F)(F)C(C)(C)C)on3)c2C2CC2)c(Cl)c1 [Example E-40]	< 3	< 3		
CCn1c(CCC(=O)Nc2cccc3ccccc23)nnc1CCc1ccccc1 [Example F-12]	< 3	< 3		
CCn1c(CCCC(C)(C)C)nnc1[C@@H]1[C@@H](C(=O)NCc2ccc(C)cc2OC)CCN1C(C)=O [Example F-370]	< 3	< 3		
Cc1ccc(NC(=O)C[C@H](CCC(=O)O)c2noc(-c3cnc(CC(C)C)s3)c2C2CC2)c(Cl)c1 [Example E-41, Sodium (S)-5-(2-chloro-4-methyl-phenylcarbamoyl)-4-[4-cyclopropyl-5-(2-isobutyl-thiazol-5-yl)-isoxazol-3-yl]-pentanoate]	< 3	< 3		
CC(=O)N1C[C@@H](C(=O)Nc2ccc(C)cc2C)[C@H](c2nnc(-c3cc(CC(C)C)on3)n2C2CC2)C1 [Example F-409]	> 3	> 3		
Cc1ccc(NC(=O)CCc2noc([C@H]3C[C@@H](CC(C)C)C3)c2/C=C/C(=O)O)c(C)c1 [Example F-646]			> 3	> 3
Cc1c(Cl)cccc1NC(=O)[C@H]1CN(C(=O)CO)C[C@@H]1c1nnc(CCC(C)C)n1C1CC1 (racemic) [Example F-146]	> 3	< 3		
Cc1c(NC(=O)CCc2nnc(CCC(C)C)n2C2CC2)cccc1C(F)(F)F [Example F-99]	> 3	< 3		
CC(=O)N1C[C@H](C(=O)Nc2cccc(Cl)c2C)[C@@H](c2nnc(CCC3CCCCC3)n2C2CC2)C1 (racemic) [Example F-155]	< 3	< 3		
Cc1ccc(NC(=O)CCc2noc(CCCC(C)(C)C)c2C2CC2)c(Cl)c1 [Example F-729]			< 3	< 3
Cc1ccc(NC(=O)C[C@H](CCC(=O)O)c2noc3c2C(C)CCC3CCC(C)C)c(Cl)c1 (mixture of isomers) [Example F-691]			< 3	< 3
Cc1ccc(NC(=O)C[C@H](CCC(=O)O)c2noc(-c3cc(CCC(C)C)on3)c2C2CC2)c(F)c1 [Example E-09]	< 3	< 3		

SMILES	EC50 ([1]; read-out: LUC EC50 (μM) hRORg) [µM]	EC50 ([2]; read-out: LUC EC50 (μM) mRORg) [µM]	EC50 ([1]; read-out: LUC EC50 hRORg) [µM]	EC50 ([2]; read-out: LUC EC50 mRORg) [µM]
Cc1ccc(NC(=O)[C@H]2CC(C)(O)C[C@@H]2c2nnc([C@H]3C[C@@H](CC(C)C)C3)n2C2CC2)c(C)c1 (single isomer, unassigned) [Example F-562]			< 3	< 3
Cc1c(Cl)cccc1NC(=O)CCc1nnc(C2CN(CC(C)C)C2)n1C1CC1 [Example F-260]	> 3	> 3		
CC(=O)N1C[C@H](C(=O)Nc2ccc(C)cc2C)[C@@H](c2nnc([C@H]3C[C@@H](OC(C)(C)C)C3)n2C2CC2)C1 (racemic) [Example F-382]	< 3	< 3		
Cc1ccc(NC(=O)[C@@H]2CC(F)(F)C[C@H]2c2nnc([C@H]3C[C@@H](CC(C)C)C3)n2C2CC2)c(C)c1 [Example F-572]			< 3	< 3
COC1(CC(C)C)CC(c2nnc([C@H]3CN(C(C)=O)C[C@@H]3C(=O)Nc3ccc(C)cc3C)n2C2CC2)C1 (single isomer, unassigned) [Example F-483]	< 3	< 3		
Cc1ccc(NC(=O)C[C@H](CCC(=O)O)c2noc(-c3cc(C(C)(C)C)on3)c2C2CC2)c(Cl)c1 [Example E-43]	< 3	< 3		
Cc1c(Cl)cccc1NC(=O)CC(O)c1nnc(CCC(C)C)n1C1CC1 (racemic) [Example F-164]	> 3	< 3		
Cc1cccc(O)c1NC(=O)CCc1nnc(CCC(C)C)n1C1CC1 [Example F-104]	> 3	> 3		
Cc1ccc(NC(=O)C[C@H](CCC(=O)O)c2noc(-c3cc(C4CC(CC(C)(C)C)C4)on3)c2C2CC2)c(Cl)c1 (stereo partly shown) [Example E-17]	< 3	< 3		
Cc1ccc(NC(=O)C[C@H](CCC(=O)O)c2noc(-c3cc(C(C)(C)C(F)(F)F)on3)c2C2CC2)c(Cl)c1 [Example E-54]	< 3	< 3		
COc1cccc(NC(=O)[C@H]2CN(C(C)=O)C[C@@H]2c2nnc(CCCC(C)(C)C)n2C2CC2)c1C (racemic) [Example F-332]	< 3	< 3		
Cc1ccc(NC(=O)C[C@@H](CCO)c2nnc(-c3cc(CC(C)C)on3)n2C2CC2)c(C)c1 [Example F-458]	> 3	> 3		
CC(=O)N1C[C@H](C(=O)Nc2ccc(Cl)cc2C)[C@@H](c2nnc([C@H]3C[C@@H](CC(C)C)C3)n2C2CC2)C1 [Example F-603]			< 3	< 3
Cc1ccc(NC(=O)C[C@H](CCO)c2nnc(-c3cc(CC(C)C)on3)n2C2CC2)c(C)c1 [Example F-457]	< 3	> 3		
Cc1ccc(NC(=O)CCc2noc(CCC3CCCCC3)c2C2CC2)c(C)c1 [Example F-494]	< 3	< 3		
Cc1c(Cl)cccc1NC(=O)CCc1nnc(C#CC(C)C)n1C1CC1 [Example F-158]	> 3	< 3		
CC(C)(C)C(F)(F)c1cc(-c2onc([C@@H](CCC(=O)O)CC(=O)Nc3ccc(Cl)cc3F)c2C2CC2)no1 [Example E-49, Sodium (S)-5-(4-chloro-2-fluoro-phenylcarbamoyl)-4-[4′-cyclopropyl-5-(1,1-difluoro-2,2-dimethylpropyl)-[3,5′]biisoxazolyl-3′-yl]-pentanoate]	< 3	< 3		
Cc1ccc(NC(=O)C[C@H](CCC(=O)O)c2noc(-c3nnc(CC(C)C)s3)c2C2CC2)c(Cl)c1 [Example E-14]	< 3	< 3		
Cc1ccc(NC(=O)[C@@H](CCC(=O)O)Cc2noc([C@H]3C[C@@H](CC(C)(C)C)C3)c2C2CC2)c(C)c1 [Example F-685]			< 3	< 3
Cc1ccc(NC(=O)[C@H]2CC(F)(F)C[C@@H]2c2nnc([C@H]3C[C@@H](CC(C)C)C3)n2C2CC2)c(C)c1 [Example F-571]			< 3	< 3
